Converted amounts (≈) assume the structure as drawn.

Assay type in all cases: cell-based
In test [1] the test system is Bifidobacterium longum subsp. infantis. Description: Minimum Inhibitory Concentration (MIC) assay. Conditions: anaerobic, 37° C., 18 h. As to the method:
(§1) The bioactivity of macrolide compounds against 4 strains of common gut bacteria (Escherichia coli, Streptococcus salivarius subsp. salivarius, Lactobacillus casei and Bifidobacterium longum subsp. infantis) and common mammalian skin isolate Micrococcus luteus, was assessed using the Minimum Inhibitory Concentration (MIC) assay. Bacterial strains were purchased from DSMZ (Brunswick, Germany) except M. luteus which was obtained from NCIMB, and stored in 20% glycerol at −80° C. Stock solutions (100% DMSO) of positive controls (azithromycin and erythromycin), and of test compounds 1 and 2 were diluted in broth to working stock concentrations of 256 μg/ml (final assay testing concentration range 128 μg/ml to 0.00391 μg/ml). Stock solutions of all other compounds were diluted in broth to working stock concentrations of 128 μg/ml (final assay testing concentration range 64 μg/ml to 0.00195 μg/ml). Bacterial strains were cultivated in appropriate broth in an anaerobic chamber at 37° C., except for M. luteus which was incubated aerobically at 37° C. 18 h cultures were diluted in broth to an OD595 of 0.1 and then further diluted 1:10. In 96-well plates, in duplicate, 200 μl working stock of test compound was transferred to well 1 and serially diluted (1:2) in broth. 100 μl bacterial suspension was aliquoted into each well and mixed thoroughly. Appropriate sterility controls were included and plates were incubated in an anaerobic chamber, or aerobically (M. luteus) at 37° C. for 18 h. The MIC was determined to be the concentration of test compound in the first well with no visible growth.

Another test deals with Escherichia coli. Description: Minimum Inhibitory Concentration (MIC) assay. Conditions: anaerobic, 37° C., 18 h. As to the method: as §1
In another test the test system is Lactobacillus casei. Description: Minimum Inhibitory Concentration (MIC) assay. Particulars: Lacticaseibacillus casei; anaerobic, 37° C., 18 h. As to the method:
as §1

The subject of a further test is Micrococcus luteus. Description: Minimum Inhibitory Concentration (MIC) assay. Conditions: aerobic, 37° C., 18 h. As to the method: as §1
In test [2] the test system is Streptococcus salivarius subsp. salivarius. Description: Minimum Inhibitory Concentration (MIC) assay. Conditions: anaerobic, 37° C., 18 h. As to the method:
as §1

In test [3] the test system is E. coli, S. salivarius, L. casei, B. longum or M. luteus. Description: Direct antibacterial activity, summary over all strains tested. Conditions: summary in words of Table 1. As to the method: as §1
The next test concerns the target T1, human TLR2 (Homo sapiens, UniProt O60603).
T1 construct: host or cells: recombinant HEK-293-TLR cell lines
Description: TLR2 reporter assay (HEK-293-TLR, SEAP). Conditions: for TLR2 stimulation: at concentrations up to 20 uM. As to the method: Samples and controls were tested in duplicate on recombinant HEK-293-TLR cell lines using a cell reporter assay at Invivogen using their standard assay conditions. These cell lines functionally over-express human TLR2 protein as well as a reporter gene which is a secreted alkaline phosphatase (SEAP). The production of this reporter gene is driven by an NFkB inducible promoter. The TLR reporter cell lines activation results are given as optical density values (OD).
20 μl of each test article were used to stimulate the hTLR2 reporter cell lines in a 200 μl of final reaction volume. Samples were tested in duplicate, with at least two concentrations tested—20 uM and 10 uM.
Compounds were tested using a TLR2 reporter assay (see general methods) that measured for stimulation of the TLR2 receptor. Stimulatory effect was measured as an increase in optical density (OD) due to release of secreted alkaline phosphatase (SEAP) and is shown in table 4: […]

T1 sequence (O60603 21-784): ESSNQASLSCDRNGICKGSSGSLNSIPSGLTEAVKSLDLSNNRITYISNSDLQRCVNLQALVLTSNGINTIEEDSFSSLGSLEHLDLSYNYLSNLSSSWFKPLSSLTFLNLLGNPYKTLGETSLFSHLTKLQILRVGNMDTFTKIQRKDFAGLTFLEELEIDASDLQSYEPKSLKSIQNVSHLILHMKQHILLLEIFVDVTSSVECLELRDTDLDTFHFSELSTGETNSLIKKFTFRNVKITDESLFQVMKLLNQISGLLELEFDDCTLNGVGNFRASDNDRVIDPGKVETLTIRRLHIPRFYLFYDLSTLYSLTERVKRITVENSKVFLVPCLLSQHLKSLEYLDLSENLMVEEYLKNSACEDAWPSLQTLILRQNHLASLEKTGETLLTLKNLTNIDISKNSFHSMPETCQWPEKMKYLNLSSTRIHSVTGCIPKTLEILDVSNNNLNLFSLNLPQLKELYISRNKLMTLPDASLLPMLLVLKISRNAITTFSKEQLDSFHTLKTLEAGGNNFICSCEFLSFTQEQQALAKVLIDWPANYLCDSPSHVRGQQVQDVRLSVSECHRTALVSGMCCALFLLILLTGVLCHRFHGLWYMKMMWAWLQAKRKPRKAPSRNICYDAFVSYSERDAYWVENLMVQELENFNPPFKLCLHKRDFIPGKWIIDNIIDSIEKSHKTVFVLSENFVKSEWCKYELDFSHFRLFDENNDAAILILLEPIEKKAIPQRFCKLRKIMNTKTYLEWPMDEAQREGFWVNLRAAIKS

Consider `CC[C@H]1OC(=O)[C@H](C)[C@@H](O[C@H]2C[C@@](C)(OC)[C@@H](O)[C@H](C)O2)[C@H](C)[C@@H](O[C@@H]2O[C@H](C)C[C@H](N(C)C)[C@H]2O)[C@](C)(O)C[C@@H](C)CN(C)[C@H](C)[C@@H](O)[C@]1(C)O` [Azithromycin, reference compound], for which the MIC in test [1] was more than 64 µg/mL; in the test on Escherichia coli, less than 8 µg/mL; against Lactobacillus casei, less than 1 µg/mL; in the test on Micrococcus luteus it was 0.125 µg/mL (≈ 0.167 µM); in test [2], less than 0.5 µg/mL. Besides, the “antibacterial activity against the bacterial strains tested” value (“antibacterial activity” for short) in test [3] is “potent activity against a number of the strains”. Besides, the “OD after addition of 5 μM test article” value at human TLR2 worked out at 0.029 OD. Besides, on human TLR2, the “OD after addition of 10 μM test article” value came to 0.045 OD. Besides, the “OD after addition of 20 μM test article” value on human TLR2 was found to be 0.031 OD. The TLR2 stimulation result at human TLR2 is reported as “little or no stimulation”.
Consider `CC[C@H]1OC(=O)[C@H](C)[C@@H](O[C@H]2CC(N(C)C)[C@H](O)C(C)O2)[C@H](C)[C@@H](O)[C@](C)(O)C[C@@H](C)C(=O)[C@H](C)[C@@H](O)[C@H]1C` (stereo partly drawn) [Compound 3], for which the “antibacterial activity” value in test [3] is “no antibacterial activity”. Besides, on human TLR2, the “OD after addition of 5 μM test article” value is recorded as −0.043 OD, the “OD after addition of 10 μM test article” value was −0.015 OD, the “OD after addition of 20 μM test article” value was −0.026 OD and the TLR2 stimulation result is “little or no stimulation”.
For the compound `CC[C@H]1OC(=O)[C@H](C)[C@@H](O[C@H]2CC(N(C)C)[C@H](O)C(C)O2)[C@H](C)[C@@H](O)[C@](C)(O)C[C@@H](C)CN(C)[C@H](C)[C@@H](O)[C@H]1C` (stereo partly drawn) [Compound 4], the MIC (in test [1]; against Escherichia coli; in the test on Lactobacillus casei; in test [2]) was more than 64 µg/mL throughout. Moreover, in test [3], the “antibacterial activity” value is “no antibacterial activity”.
As to `CC1O[C@@H](O[C@H]2[C@H](C)[C@@H](O)[C@](C)(O)C[C@@H](C)C(=O)[C@H](C)[C@@H](O)[C@@H](C)[C@@H](C3CCC3)OC(=O)[C@@H]2C)CC(N(C)C)[C@@H]1O` (stereo partly drawn) [Compound 5], the MIC (in test [1]; in the test with Escherichia coli; against Lactobacillus casei; in test [2]) was more than 64 µg/mL in each case. In test [3], the “antibacterial activity” value is given as “no antibacterial activity”.
Regarding `CC[C@H]1OC(=O)[C@H](C)[C@@H](O[C@H]2CC(NC)[C@H](O)C(C)O2)[C@H](C)[C@@H](O)[C@](C)(O)C[C@@H](C)C(=O)[C@H](C)[C@@H](O)[C@H]1C` (stereo partly drawn) [Compound 6], the MIC (in test [1]; in the test with Escherichia coli; in the test with Lactobacillus casei; in test [2]) was more than 64 µg/mL in each case. For the same compound, the “antibacterial activity” value in test [3] is “no antibacterial activity”.
In the case of `CC1O[C@@H](O[C@H]2[C@H](C)[C@@H](O)[C@](C)(O)C[C@@H](C)C(=O)[C@H](C)[C@@H](O)[C@@H](C)[C@@H](C)OC(=O)[C@@H]2C)CC(N(C)C)[C@@H]1O` (stereo partly drawn) [Compound 8], the MIC (in test [1]; against Escherichia coli; against Lactobacillus casei; in test [2]) was more than 64 µg/mL each time. Further, the “antibacterial activity” value in test [3] is on record as “no antibacterial activity”.
`CC(O)[C@H]1OC(=O)[C@H](C)[C@@H](O[C@H]2C[C@@H](N(C)C)[C@H](O)[C@@H](C)O2)[C@H](C)[C@@H](O)[C@](C)(O)C[C@@H](C)C(=O)[C@H](C)[C@@H](O)[C@H]1C` (stereo partly drawn) [Compound 9, 14-hydroxy angolosamine erythronolide B]: the minimum inhibitory concentration (MIC) (in test [1]; with Escherichia coli; against Lactobacillus casei; in test [2]) was more than 64 µg/mL in each case. Moreover, the “antibacterial activity” value in test [3] was “no antibacterial activity”.
As for `CC[C@H]1OC(=O)[C@H](C)[C@@H](O[C@H]2CC(N(C)C)[C@H](O)C(C)O2)[C@H](C)[C@@H](O)[C@](C)(O)C[C@@H](C)N(C)C[C@H](C)[C@@H](O)[C@]1(C)O` (stereo partly drawn) [Compound 17], at human TLR2, the “lowest concentration at which TLR2 was stimulated (concentrations down to)” value stood at 10 µM, the “OD after addition of 5 μM test article” value came to 0.054 OD, the “OD after addition of 10 μM test article” value worked out at 0.155 OD and the “OD after addition of 20 μM test article” value amounted to 0.234 OD.
Turning to `CC[C@H]1OC(=O)[C@H](C)[C@@H](O[C@H]2C[C@@](C)(OC)[C@@H](O)[C@H](C)O2)[C@H](C)[C@@H](O[C@@H]2O[C@H](C)C[C@H](N(C)C)[C@H]2O)[C@](C)(O)C[C@@H](C)C(=O)[C@H](C)[C@@H](O)[C@]1(C)O` [Erythromycin, reference compound], the minimal inhibitory concentration (MIC) in test [1] was more than 64 µg/mL; with Escherichia coli it was more than 64 µg/mL; against Lactobacillus casei it was less than 0.25 µg/mL; against Micrococcus luteus it was less than 0.0625 µg/mL; in test [2], less than 0.06 µg/mL. Besides, the “antibacterial activity” value in test [3] is given as “potent activity against a number of the strains”. Also, the “OD after addition of 5 μM test article” value on human TLR2 was 0.035 OD. The “OD after addition of 10 μM test article” value at human TLR2 was 0.065 OD. Further, the “OD after addition of 20 μM test article” value at human TLR2 was 0.045 OD. At human TLR2, the TLR2 stimulation result was “little or no stimulation”.

For the origin of these results see patent publication US11059844B2, “Immune stimulating macrolides” (ISR IMMUNE SYSTEM REGULATION HOLDING AB (PUBL), priority 2017, dated 2021).
